Laboratory results reported in US11499978B2, “Method for measuring quality of therapeutic cell through real-time glutathione measurement” (CELL2IN, INC., priority 2017, dated 2022).

Assays:
hES-MSCs = test: CFU-F assay of FreSH-Tracer-sorted hES-MSCs; assay type: cell-based, human
Method: Main factors for determining the therapeutic efficacy of hBM-MSCs, namely a colony forming unit-fibroblast (CFU-F) and a graft survival rate, were evaluated in cell culture models.
In order to test whether direct control of a GSH level in stem cells leads to change in cell functions, hES-MSCs sorted by FreSH-Tracer were treated with buthionine sulfoximine (BSO; glutathione synthesis inhibitor) and glutathione ethyl ester (GSH-EE). When GSH was decreased in cells by treating GSH^High cells with BSO (80 μM, 24 h), it was confirmed that CFU-F increased, and on the other hand, when GSH was increased by treating GSH^Low cells with GSH-EE (1 mM, 2 h), it was confirmed that CFU-F decreased (FIG. 13A). In addition, it was confirmed that, when hES-MSCs which were not sorted by FreSH-Tracer were treated with BSO or GSH-EE, PDGF-AA-induced cell migration capacity was decreased or increased, respectively (FIG. 13B).

T cells = test: Anti-inflammatory effect of treated hUC-MSCs on T cells; assay type: cell-based; conditions: hUC-MSCs treated with 1 μM ferrostatin-1 24 h, 0.2 mM GGC 2 h, 2 mM GSH-EE 2 h
Method: The inventors observed an effect of the material on stem cells by treating each stem cells with a material for enhancing a glutathione evaluation parameter. When hUC-MSCs were subcultured in a L-AA2G-containing medium, CFU-F, migration capacity, and an anti-inflammatory effect were observed. A CFU-F assay (n=3) was performed by treating hUC-MSCs with 125 or 250 μg/mL of AA2G for three days. As shown in FIGS. 16A and 16B, it was confirmed that, when AA2G was treated, CFU-F increased. In addition, as hUC-MSCs were treated with 125 or 250 μg/mL of AA2G for three days, PDGF-AA-induced migration capacity (n=3) was analyzed. As shown in FIGS. 17A and 17B, it was confirmed that the migration capacity was increased by AA2G treatment. In addition, the reduction in T cell proliferation, the reduction in T cell differentiation, and the promotion of Treg cell differentiation were observed by treating hUC-MSCs with 125 or 250 μg/mL of AA2G for three days.
In addition, hUC-MSCs were cultured with ferrostatin-1 (0.2, 1, 2 and 4 μM) and liproxstatin-1 (0.1, 0.5, 1 and 2 μM), which control a glutathione level in cells by inhibiting lipid oxidation. […] Meanwhile, the hUC-MSCs were treated with 1 μM ferrostatin-1 for 24 hours, 0.2 mM GGC for 2 hours, and 2 mM GSH-EE for 2 hours. As a result, the reduction in T cell proliferation ability and the reduction in T cell differentiation capacity were observed, and promotion of Treg cell differentiation was observed.

SMILES | CFU-F (hES-MSCs; GSH^High hES-MSCs treated with BSO 80 μM, 24 h) | CFU-F (hES-MSCs; GSH^Low hES-MSCs treated with GSH-EE 1 mM, 2 h) | T cell differentiation capacity (T cells) | T cell proliferation ability (T cells) | Treg cell differentiation (T cells)
CCCCS(=N)(=O)CCC(N)C(=O)O (centres unmarked) [BSO, buthionine sulfoximine] | increased |  |  |  | 
CCOC(=O)CNC(=O)[C@H](CS)NC(=O)CC[C@H](N)C(=O)O [GSH-EE, glutathione ethyl ester] |  | decreased | reduction | reduction | promotion
